Reference: article PMC6539592, “Functional Analysis of Peptidyl-prolyl cis-trans Isomerase from Aspergillus flavus” (International Journal of Molecular Sciences, 2019)

Target: T1, ppci1 (Aspergillus flavus, UniProt B8NRT5)
T1 construct: E. coli BL21(DE3), modified pRSFDuet-1; N-terminal 6xHis tag removed with PreScission protease
Experiment: chymotrypsin-coupled PPIase assay, absorbance at […] nm
Assay type: biochemical
Settings: 15 °C, HEPES pH 8.0; substrate succinyl-AAPF-p-nitroanilide; figure labels traces FK506-CsA and FK506-Rap, possibly combined

T1 sequence (B8NRT5 1-122): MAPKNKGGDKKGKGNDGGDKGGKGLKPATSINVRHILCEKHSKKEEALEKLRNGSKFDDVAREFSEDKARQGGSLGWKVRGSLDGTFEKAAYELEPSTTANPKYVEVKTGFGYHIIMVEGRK

Row | Structure (SMILES) | inhibition
1 | C=CC[C@@H]1/C=C(\C)C[C@H](C)C[C@H](OC)[C@H]2O[C@@](O)(C(=O)C(=O)N3CCCC[C@H]3C(=O)O[C@H](/C(C)=C/[C@@H]3CC[C@@H](O)[C@H](OC)C3)[C@H](C)[C@@H](O)CC1=O)[C@H](C)C[C@@H]2OC [FK506, Tacrolimus] | activity of ppci1 was inhibited by these aforementioned drugs with constantly decreased absorption
2 | CO[C@H]1C[C@@H]2CC[C@@H](C)[C@@](O)(O2)C(=O)C(=O)N2CCCC[C@H]2C(=O)O[C@H]([C@H](C)C[C@@H]2CC[C@@H](O)[C@H](OC)C2)CC(=O)[C@H](C)/C=C(\C)[C@@H](O)[C@@H](OC)C(=O)[C@H](C)C[C@H](C)/C=C/C=C/C=C/1C [Rap, Rapamycin] | We found that FK506, CsA and Rapamycin inhibit the protein activity of ppci1
